Assay results: PubChem BioAssay AID248 (DTP/NCI, 2004)
Where “and” joins values, the source holds several entries; their conditions need not be identical. Equal entries are not always repeated. Toxic doses and inconclusive results are not listed. Cut-off read from the data, not from the text of the source: active = T/C of 150% or more; inactive = T/C below 125%.

Tested on: L1210 leukemia ip in BDF1 mice, survival T/C
Test: NCI In Vivo Anticancer Drug Screen. Data for tumor model L1210 Leukemia (intraperitoneal) in B6D2F1 (BDF1) mice
Details: endpoint: mean survival time, higher = longer survival
In short: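 Tumor cells were implanted, animals were treated, and survival was followed. The result divides the treated measurement by the vehicle-control measurement.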

[1] = dose: 100.0 mg/kg/injection, schedule: Q04DX003 (ip), vehicle: saline with Tween-80
[2] = dose: 100.0 mg/kg/injection, schedule: Q04DX003 (ip), vehicle: saline
[3] = dose: 100.0 mg/kg/injection, schedule: Q01DX009 (ip), vehicle: Klucel (hydroxypropylcellulose) (HPC)
[4] = dose: 200.0 mg/kg/injection, schedule: Q01DX009 (ip), vehicle: Klucel (hydroxypropylcellulose) (HPC)
[5] = dose: 200.0 mg/kg/injection, schedule: Q04DX003 (ip), vehicle: saline
[6] = dose: 400.0 mg/kg/injection, schedule: Q01DX009 (ip), vehicle: Klucel (hydroxypropylcellulose) (HPC)
[7] = dose: 400.0 mg/kg/injection, schedule: Q04DX003 (ip), vehicle: saline
[8] = dose: 75.0 mg/kg/injection, schedule: Q01DX001 (ip), vehicle: saline
[9] = dose: 150.0 mg/kg/injection, schedule: Q01DX001 (ip), vehicle: saline
[10] = dose: 300.0 mg/kg/injection, schedule: Q01DX001 (ip), vehicle: saline
[11] = dose: 100.0 mg/kg/injection, schedule: Q01DX001 (ip), vehicle: carboxymethylcellulose (CMC)
[12] = dose: 100.0 mg/kg/injection, schedule: Q01DX001 (ip), vehicle: saline
[13] = dose: 200.0 mg/kg/injection, schedule: Q01DX001 (ip), vehicle: saline
[14] = dose: 400.0 mg/kg/injection, schedule: Q01DX001 (ip), vehicle: saline
[15] = dose: 100.0 mg/kg/injection, schedule: Q01DX001 (ip), vehicle: other
[16] = dose: 200.0 mg/kg/injection, schedule: Q01DX001 (ip), vehicle: other
[17] = dose: 200.0 mg/kg/injection, schedule: Q04DX003 (ip), vehicle: saline with Tween-80
[18] = dose: 400.0 mg/kg/injection, schedule: Q04DX003 (ip), vehicle: saline with Tween-80

Measured: T/C

Cc1cc(N=CN(C)C)c2ccccc2n1
inactive: dose: 25.0 mg/kg/injection, schedule: Q01DX001 (ip), vehicle: saline with Tween-80 102 % of control | dose: 50.0 mg/kg/injection, schedule: Q01DX001 (ip), vehicle: saline with Tween-80 101 % of control | dose: 50.0 mg/kg/injection, schedule: Q04DX003 (ip), vehicle: saline with Tween-80 108 % of control | [1] 98 % of control

[Cl][Co][Cl].[NH-]CCN1CC1
inactive: [2] 90 % of control

Cn1nnnc1N
inactive: [3] 96 % of control | dose: 100.0 mg/kg/injection, schedule: Q01DX009 (ip), vehicle: saline 98 % of control | [2] 103 % of control | [4] 100 % of control | dose: 200.0 mg/kg/injection, schedule: Q01DX009 (ip), vehicle: saline 96 % of control | [5] 105 % of control | [6] 95 % of control | dose: 400.0 mg/kg/injection, schedule: Q01DX009 (ip), vehicle: saline 89 % of control | [7] 100 % of control

CCCCOP(=O)(NNC=O)OCCCC
inactive: [2] 96 % of control | [5] 98 % of control | [7] 95 % of control

CC(C)CC(CC(C)C)NC(C)COC(=O)C(c1ccccc1)c1ccccc1 (stereo not given)
inactive: [8] 98 % of control | [9] 102 % of control | [10] 100 % of control

COc1ccc(CCNC(=S)NC(=O)c2ccc(Cl)c(Cl)c2)cc1OC
inactive: [3] 91 % of control | [4] 86 % of control | [6] 93 % of control

CC1(C)NC(=O)N(C(C)(C)C(=O)O)C1=O
inactive: [11] 90 % of control | dose: 200.0 mg/kg/injection, schedule: Q01DX001 (ip), vehicle: carboxymethylcellulose (CMC) 95 % of control | dose: 400.0 mg/kg/injection, schedule: Q01DX001 (ip), vehicle: carboxymethylcellulose (CMC) 87 % of control

CCOC(C)=N
inactive: dose: 50.0 mg/kg/injection, schedule: Q01DX001 (ip), vehicle: saline 100 % of control | dose: 50.0 mg/kg/injection, schedule: Q01DX008 (ip), vehicle: saline 102 % of control | [12] 89 % of control and 97 % of control | dose: 100.0 mg/kg/injection, schedule: Q01DX008 (ip), vehicle: saline 112 % of control | [2] 107 % of control | [13] 105 % of control and 111 % of control | dose: 200.0 mg/kg/injection, schedule: Q01DX008 (ip), vehicle: saline 115 % of control | [5] 107 % of control | [14] 115 % of control | [7] 110 % of control

C#CC1(NC(=S)NC(=O)c2ccccc2)CCCCC1
inactive: dose: 25.0 mg/kg/injection, schedule: Q01DX009 (ip), vehicle: Klucel (hydroxypropylcellulose) (HPC) 93 % of control | dose: 50.0 mg/kg/injection, schedule: Q01DX009 (ip), vehicle: Klucel (hydroxypropylcellulose) (HPC) 94 % of control | [3] 94 % of control and 88 % of control

Cc1cc2ncn(CC(=O)O)c2cc1C
inactive: [2] 101 % of control | [5] 95 % of control | [7] 97 % of control

CC1(C)CC(N)CC(C)(C)N1
inactive: dose: 50.0 mg/kg/injection, schedule: Q01DX001 (ip), vehicle: carboxymethylcellulose (CMC) 107 % of control | [11] 103 % of control

CC(=O)Nc1ccn(C2OC(COC(C)=O)C(OC3OC(COC(C)=O)C(OC(C)=O)C(OC(C)=O)C3OC(C)=O)C(OC(C)=O)C2OC(C)=O)c(=O)n1 (stereo not given)
inactive: dose: 22.5 mg/kg/injection, schedule: Q01DX001 (ip), vehicle: carboxymethylcellulose (CMC) 103 % of control | dose: 45.0 mg/kg/injection, schedule: Q01DX001 (ip), vehicle: carboxymethylcellulose (CMC) 100 % of control | dose: 90.0 mg/kg/injection, schedule: Q01DX001 (ip), vehicle: carboxymethylcellulose (CMC) 100 % of control | dose: 180.0 mg/kg/injection, schedule: Q01DX001 (ip), vehicle: carboxymethylcellulose (CMC) 100 % of control

Cc1ccc(Nc2cc(=O)[nH]c(=O)[nH]2)c(C)c1
inactive: dose: 18.75 mg/kg/injection, schedule: Q01DX001 (ip), vehicle: saline with Tween-80 97 % of control | dose: 37.5 mg/kg/injection, schedule: Q01DX001 (ip), vehicle: saline with Tween-80 90 % of control | dose: 75.0 mg/kg/injection, schedule: Q01DX001 (ip), vehicle: saline with Tween-80 90 % of control

COC(=O)N/N=C/Cc1ccccc1
inactive: dose: 25.0 mg/kg/injection, schedule: Q01DX009 (ip), vehicle: saline with Tween-80 91 % of control | dose: 50.0 mg/kg/injection, schedule: Q01DX009 (ip), vehicle: saline with Tween-80 90 % of control | dose: 100.0 mg/kg/injection, schedule: Q01DX009 (ip), vehicle: saline with Tween-80 102 % of control

O=C(O)CC[S-].[Ag+]
inactive: dose: 50.0 mg/kg/injection, schedule: Q04DX003 (ip), vehicle: other 94 % of control | dose: 75.0 mg/kg/injection, schedule: Q01DX009 (ip), vehicle: other 98 % of control | [15] 91 % of control | dose: 100.0 mg/kg/injection, schedule: Q04DX003 (ip), vehicle: other 89 % of control | dose: 150.0 mg/kg/injection, schedule: Q01DX009 (ip), vehicle: other 98 % of control | [16] 91 % of control | dose: 200.0 mg/kg/injection, schedule: Q04DX003 (ip), vehicle: other 91 % of control | dose: 300.0 mg/kg/injection, schedule: Q01DX009 (ip), vehicle: other 109 % of control

CSCCOC(=O)C1C2CCC(O2)C1C(=O)O (stereo not given)
inactive: dose: 12.5 mg/kg/injection, schedule: Q04DX003 (ip), vehicle: Klucel (hydroxypropylcellulose) (HPC) 104 % of control

O=C(OCCCCCCCCOC(=O)c1cccc([N+](=O)[O-])c1)c1cccc([N+](=O)[O-])c1
inactive: [15] 102 % of control | [16] 101 % of control | dose: 400.0 mg/kg/injection, schedule: Q01DX001 (ip), vehicle: other 96 % of control

Cc1[nH]ncc1Br
inactive: [1] 98 % of control | [17] 92 % of control | [18] 103 % of control

O=C(O)/C=C\C(=O)Nc1nc(NC(=O)/C=C/C(=O)O)cc(=O)[nH]1
inactive: [12] 97 % of control | [13] 100 % of control | [14] 103 % of control

O=C(C(=O)c1cc(Br)ccc1O)c1cc(Br)ccc1O
inactive: [3] 96 % of control | dose: 100.0 mg/kg/injection, schedule: Q04DX003 (ip), vehicle: Klucel (hydroxypropylcellulose) (HPC) 93 % of control | [4] 100 % of control | dose: 200.0 mg/kg/injection, schedule: Q04DX003 (ip), vehicle: Klucel (hydroxypropylcellulose) (HPC) 97 % of control | [6] 94 % of control | dose: 400.0 mg/kg/injection, schedule: Q04DX003 (ip), vehicle: Klucel (hydroxypropylcellulose) (HPC) 95 % of control

COC1=C(NCCc2ccc(OC)c(OC)c2)C(=O)C(OC)=C(NCCc2ccc(OC)c(OC)c2)C1=O
inactive: [12] 109 % of control | [13] 98 % of control | [14] 96 % of control

CCCCCCCNC(=S)OCC
inactive: dose: 100.0 mg/kg/injection, schedule: Q04DX002 (ip), vehicle: saline with Tween-80 100 % of control | dose: 200.0 mg/kg/injection, schedule: Q04DX002 (ip), vehicle: saline with Tween-80 107 % of control | dose: 400.0 mg/kg/injection, schedule: Q04DX002 (ip), vehicle: saline with Tween-80 107 % of control

CC[Si](CC)(CC)c1ccc(CCNCCS)s1
inactive: dose: 75.0 mg/kg/injection, schedule: Q04DX003 (ip), vehicle: saline 95 % of control | dose: 150.0 mg/kg/injection, schedule: Q04DX003 (ip), vehicle: saline 93 % of control

CN=C(NC1CCCCC1)c1ccc(NC(=O)c2ccc(C(=O)Nc3ccc(C(=NC)NC4CCCCC4)cc3)cc2)cc1
inactive: dose: 1.88 mg/kg/injection, schedule: Q01DX Z (ip), vehicle: saline 102 % of control | dose: 3.75 mg/kg/injection, schedule: Q01DX Z (ip), vehicle: saline 100 % of control | dose: 7.5 mg/kg/injection, schedule: Q01DX Z (ip), vehicle: saline 102 % of control

Cc1cc(P(=O)(O)O)ccc1[N+](=O)[O-]
inactive: [8] 95 % of control | [9] 88 % of control | [10] 96 % of control

O=C(/C=C/c1ccc([N+](=O)[O-])cc1)c1ccc(Cl)cc1
inactive: [1] 104 % of control | [17] 94 % of control | [18] 91 % of control
